# From publication PMC11047580, “Design and Synthesis of Novel Amino and Acetamidoaurones with Antimicrobial Activities” (Antibiotics, 2024)
# Key:
# [1] = system: Klebsiella pneumonia (DSM26371); test: MIC assay; format: cell-based; conditions: two-fold serial dilutions in liquid media, n = 2–3
# [2] = system: kidney epithelial cell line A498; conditions: human
# [3] = system: Enterococcus faecalis (DSM2570); test: MIC assay; format: cell-based; conditions: two-fold serial dilutions in liquid media, n = 2–3
# [4] = system: Enterobacter cloacae (DSM30054); test: MIC assay; format: cell-based; conditions: two-fold serial dilutions in liquid media, n = 2–3
# [5] = system: normal lung fibroblasts IMR-90; conditions: human
# [6] = system: Shigella flexneri (ATCC12022); test: MIC assay; format: cell-based; conditions: two-fold serial dilutions in liquid media, n = 2–3
# [7] = system: normal lung epithelial cells BEAS-2B; conditions: human
# [8] = system: Salmonella enterica (CIP80.39); test: MIC assay; format: cell-based; conditions: two-fold serial dilutions in liquid media, n = 2–3
# [9] = system: Propionibacterium acnes (ATCC6919); test: MIC assay; format: cell-based; conditions: Cutibacterium acnes, two-fold serial dilutions in liquid media, n = 2–3
# [10] = system: Clostridium botulinum (DSM1985); test: microbe, parasite or virus in culture; format: cell-based; conditions: DSM1985, read-out: MIC Clostridium botulinum (DSM1985)
# [11] = system: Mycobacterium tuberculosis H37Rv (mc^26230); test: MIC assay (REMA); format: cell-based; conditions: REMA microdilution, n = 2–3
# [12] = system: Listeria monocytogenes (DSM20600); test: MIC assay; format: cell-based; conditions: two-fold serial dilutions in liquid media, n = 2–3
# [13] = system: human cells (A498, BEAS-2B, Caco-2, HaCaT, HepG2, IMR-90); test: Cytotoxic assay, summary over the six human cell types
# M. smegmatis ATCC700084 = test: MIC assay (REMA); format: cell-based, Mycobacterium smegmatis; conditions: Mycolicibacterium smegmatis, ATCC700084, REMA microdilution, n = 2–3
# [14] = system: Candida glabrata (DSM11226); test: MIC assay; format: cell-based; conditions: Nakaseomyces glabratus, two-fold serial dilutions in liquid media, n = 2–3
# [15] = system: Streptococcus pyogenes (DSM20565); test: MIC assay; format: cell-based; conditions: two-fold serial dilutions in liquid media, n = 2–3
# [16] = system: Aspergillus fumigatus (DSM819); test: MIC assay; format: cell-based; conditions: two-fold serial dilutions in liquid media, n = 2–3
# B. subtilis ATCC6633 = test: MIC assay; format: cell-based, Bacillus subtilis; conditions: Bacillus subtilis, ATCC6633; two-fold serial dilutions in liquid media; n = 2–3
# [17] = system: human cells (A498, BEAS-2B, Caco-2, HaCaT, HepG2, IMR-90)
# [18] = system: normal epidermal keratinocytes (HaCaT); conditions: human
# [19] = system: Bacillus anthracis (CNR-charbon_04022); test: microbe, parasite or virus in culture; format: cell-based; conditions: read-out: MIC Bacillus anthracis (CNR-charbon_04022)
# S. aureus ATCC6538P = test: MIC assay; format: cell-based, Staphylococcus aureus; conditions: Staphylococcus aureus, ATCC6538P; two-fold serial dilutions in liquid media; n = 2–3
# [20] = system: Cryptococcus neoformans (DSM11959); test: MIC assay; format: cell-based; conditions: two-fold serial dilutions in liquid media, n = 2–3
# P. aeruginosa ATCC9027 = test: MIC assay; format: cell-based, Pseudomonas aeruginosa; conditions: Pseudomonas aeruginosa, ATCC9027; two-fold serial dilutions in liquid media; n = 2–3
# liver cell line HepG2 = conditions: human
# [21] = system: Mycobacterium abscessus S (CIP 104536^T); test: MIC assay (REMA); format: cell-based; conditions: REMA microdilution, n = 2–3
# Bacillus cereus (DSM31) = test: MIC assay; format: cell-based; conditions: two-fold serial dilutions in liquid media, n = 2–3
# E. coli ATCC8739 = test: MIC assay; format: cell-based, Escherichia coli; conditions: Escherichia coli, ATCC8739; two-fold serial dilutions in liquid media; n = 2–3
# [22] = system: Helicobacter pylori (ATCC43504); test: MIC assay; format: cell-based; conditions: two-fold serial dilutions in liquid media, n = 2–3
# [23] = system: Francisella tularensis (NR-643); test: microbe, parasite or virus in culture; format: cell-based; conditions: read-out: MIC Francisella tularensis (NR-643)
# [24] = system: Candida tropicalis (DSM9419); test: MIC assay; format: cell-based; conditions: two-fold serial dilutions in liquid media, n = 2–3
# [25] = system: Clostridium perfringens (ATCC13124); test: microbe, parasite or virus in culture; format: cell-based; conditions: ATCC13124, read-out: MIC Clostridium perfringens (ATCC13124)
# [26] = Cytotoxic assay (resazurin); conditions: human, A498 kidney epithelial cells
# [27] = Cytotoxic assay (resazurin); conditions: human, Caco-2
# [28] = system: Brucella melitensis (NR-256); test: microbe, parasite or virus in culture; format: cell-based; conditions: read-out: MIC Brucella melitensis (NR-256)
# [29] = Cytotoxic assay (resazurin); conditions: human, IMR-90 normal lung fibroblasts
# [30] = system: Enterococcus faecium (DSM20477); test: MIC assay; format: cell-based; conditions: two-fold serial dilutions in liquid media, n = 2–3
# [31] = system: Vibrio alginolyticus (DSM2171); test: MIC assay; format: cell-based; conditions: two-fold serial dilutions in liquid media, n = 2–3
compound,measurement,setting,value
"CC(=O)Nc1ccc2c(c1)C(=O)/C(=C/c1cccc(OCc3ccccc3)c1)O2 [Compound 10, (Z)-N-(2-(3-(benzyloxy)benzylidene)-3-oxo-2,3-dihydrobenzofuran-5-yl)acetamide]",MIC,"[1]; Klebsiella pneumoniae, DSM26371",> 100 µM
same,MIC,[1],>100 µM
same,"TI with MIC of 0.78 µM, A498",[2],510.5
same,MIC,[3],50 µM
same,MIC,"[4]; Enterobacter cloacae, DSM30054",> 100 µM
same,MIC,[4],>100 µM
same,"TI with MIC of 0.78 µM, IMR-90",[5],540.2
same,MIC,[6],25 µM
same,"TI with MIC of 0.78 µM, BEAS-2B",[7],216.6
same,MIC,[8],25 µM
same,MIC,[9],100 µM
same,MIC,[10],0.78 µM
same,MIC,"[11]; Mycobacterium tuberculosis, H37RV",> 100 µM
same,MIC Mycobacterium tuberculosis H37Rv (mc^26230),[11],inactive
same,melting point,,204.5 °C
same,MIC,[12],3.12 µM
same,Highest TI,[13]; highest CC50 on human cells divided by MIC on S. aureus,37.7
same,Lowest TI,[13]; lowest CC50 on human cells divided by MIC on S. aureus,13.5
same,MIC,M. smegmatis ATCC700084,50 µM
same,MIC,[14],50 µM
same,MIC,[15],50 µM
same,MIC,"[16]; Aspergillus fumigatus, DSM819",> 100 µM
same,MIC Aspergillus fumigatus (DSM819),[16],inactive
same,MIC,B. subtilis ATCC6633,3.12 µM
same,"TI values, range over human cells",[17],216.6-605.6
same,"TI with MIC of 0.78 µM, HaCaT",[18],344.2
same,MIC,[19],12.5 µM
same,MIC,S. aureus ATCC6538P,12.5 µM
same,MIC,[20],25 µM
same,MIC,P. aeruginosa ATCC9027,25 µM
same,"TI with MIC of 0.78 µM, HepG-2",liver cell line HepG2,605.6
same,MIC,"[21]; Mycobacteroides abscessus, CIP104536, S morphotype",> 100 µM
same,MIC Mycobacterium abscessus S (CIP 104536^T),[21]; S morphotype,inactive
same,MIC,Bacillus cereus (DSM31),12.5 µM
same,MIC,E. coli ATCC8739,12.5 µM
same,MIC,[22],12.5 µM
same,MIC,[23],50 µM
same,MIC,[24],100 µM
same,MIC,[25],> 100 µM
same,CC50 at 48 h,[26],398 µM
same,CC50 at 48 h,[27],200 µM
same,MIC,[28],25 µM
same,CC50 at 48 h,[29],421 µM
same,MIC,[30],100 µM
same,MIC,[31],25 µM
